Results published in patent US4440757A, “Pharmaceutical composition comprising derivative of aminobenzoic acid for regulating prostaglandin” (priority 1978, dated 1984).

How the values were obtained:
cats = experiment: Pyrexia caused by pyrogen (Shigella dysentriae o-antigen) and PGE in c.s.f.; assay type: in vivo, cat
Procedure: The experiments were carried out on cats weighing 3 to 3.5 kg. In an aseptic operation under intraperitoneally administered sodium pentobarbitone at 36 mg/kg, a Collison cannula was implanted into the rostral part of the third ventricle of the cat.
A few days after implantation of the cannula, when the cat had recovered from the operation, specimens of cerebrospinal fluid were collected without anesthesia, whilst the cat was kept unrestrained in its cage, and its rectal temperature was recorded.
The specimens of cerebrospinal fluid (c.s.f.) were assayed immediately after collection, or after having been stored at -2° for 24 to 48 hours, and the determination of PGE in the specimens was carried out as in Example 9 using ^3 H-Prostaglandin E Radioimmunoassay Kit (manufactured by Clinical Assay Co., USA). Rectal temperature was recorded at room temperature (21° to 23° C.) with the thermistor probe inserted about 10 cm deep into the rectum.
As the pyrogen, somatic type o-antigen of Shigella dysentriae was used, and after dissolving 75 ng of the pyrogen into 0.15 ml of a pyrogen-free artificial c.s.f., the solution was injected into the third ventricle through the implanted cannula to induce fever.
After 2 hours of administration, the rectal temperature was measured to confirm the occurrence of pyrexia and then the present substance (each of Specimens Nos. 4, 7 and 8) was forcibly administered orally as an aqueous solution in distilled water at a rate of 100 mg/kg, control being administered only with distilled water in this time.
The rectal temperature of all animals was measured after one hour of the administration of the present substance.
The c.s.f. for the determination of its content of PGE was collected respectively before and after 2 hours of the injection of the pyrogen and after one hour of the administration of the present substance.

male Sprague-Dowley rats = experiment: Foot-oedema induced by carrageenin and PGE1; assay type: in vivo; conditions: 1000 mg/kg p.o.; with carrageenin + PGE1; 60 min after carrageenin
Procedure: The three groups of male Sprague-Dowley rats of total six groups, the respective present substances, Specimens Nos. 4, 7 and 8 were administered forcibly by oral route at a rate of 1000 mg/kg, the other three groups of the same kind of rats being administered nothing at this time.
After 60 min of the administration, 0.1 ml of an aqueous solution of carrageenin (1 mg) and PGE1 (0.1 μg) was injected onto the hind paw of the four groups of the rats including the three groups administered with the present substance. To one group of remaining two groups not administered with the present substance, 0.1 ml of an aqueous solution containing only carrageenin at 1% was injected, and to the other one group not administered with the present substance, an aqueous solution containing only PGE1 was injected.
The volume of the thus swollen foot of the groups of the thus treated rats was measured by the water-displacement method, and the results are shown in Table 17 by the increment of the volume of foot as compared to the volume of foot before the treatment as percentage.

Ehrlich cancer = experiment: Cancer proliferation and PGE in the cancer cells (Ehrlich); assay type: in vivo, C57BL/6 mouse; conditions: 100 mg/kg i.p. every other day, 14th day; for Weight of cancer: control 1.30; for Content of PGE in the cancer: control 1.77
Procedure: Following the same method as in Example 12, the anti-cancer action against transplanted Ehrlich cancer in C57BL/6 mouse, and the amount of PGE in the cancer cells in proliferation in the living body of the mouse were examined in the cases where each one compound of the present invention, Specimens Nos. 1, 2, 3, 4, 5, 6, 8, 9, 10 and 11 was intraperitoneally administered every other day from the next day of the transplantation in total 6 times at a dosage of 100 mg/kg.
The results of determination of the weight of cancer extirpated from the sacrificed mouse on 14th day of the transplantation of the cancer cells, 1×10^6 in number per animal, and content of PGE of the extirpated cancer are shown in the following Table 13: […]

[1] = tested on: human dinuclear leukemia J-111 strain; experiment: PGs in culture medium of human leukemia cells; assay type: cell-based; conditions: 50, 500 or 5,000 μg/ml, 7 days
Procedure: To each 10 ml of a culture medium prepared by adding 10% of bovine foetal serum and one of the present substance, Specimen No. 7, at a concentration of 50, 500 or 5,000 μg/ml to Eagle's culture medium and placed in a polystyrene flask of 75 cm^2 in bottom surface, 5×10^5 cultured cells of human dinuclear leukemia J-111 strain were inoculated and cultured at 37° C. under a mixed atmosphere of 5% by volume of gaseous […] and 95% by volume of air for 7 days. During the cultivation, the culture medium was replaced on the second day and the fourth day with respective fresh ones, and each spent medium was subjected to centrifugation as soon as possible at a temperature of 4° C. at 1,500 rpm to obtain each supernatant liquid of cultured medium. The content of PGE and PGF2-α in each supernatant liquid was determined by ^3 H-Prostaglandin E Radioimmunoassay Kit and ^3 H-Prostaglandin F Radioimmunoassay Kit (manufactured by Clinical assay Co. U.S.A.).

Sato's lung cancer = experiment: Translocation of dye-staff to Sato's lung cancer; assay type: in vivo, donryu rat; conditions: 1000 mg/kg p.o. once; control 30.0
Procedure: On the back of a donryu rat, a lump of Sato's lung cancer of 5 mm in size was subcutaneously transplanted.
On the axillary part of an ICR mouse, 10^6 cells of sarcoma 180 were subcutaneously transplanted. While feeding the both animals, the present substance, Specimen No. 7, was forcibly administered orally once at a rate of 1000 mg/kg on 16th day of the transplantation and an aqueous 2% solution of Lissamine Green (a dye-staff manufactured by Imperial Chem. Ind. Co.) was injected into the caudal vein of the animal at a rate of 1 ml for a rat and 0.5 ml for a mouse.
After one hour of the injection, the animal was sacrificed to extirpate the proliferated tumour. The tumour of the rat was finely cut and homogenized with an aqueous 50% solution of ethanol. After diluting the homogenate with an addition of the solution to a total volume of 50 ml, the liquid was centrifugated for 15 min at 1000 rpm to separate the supernatant liquid. The content of the dye-staff was determined on the supernatant liquid itself or after dilution by spectrophotometry using its absorption maximum of 630 nm.

[2] = 1 hour after admin. Specimen, 100 mg/kg p.o., control 10
[3] = 1 hour after admin. Specimen, 100 mg/kg p.o., control 40.7
[4] = 2 hours after admin. pyrogen (before dosing)
[5] = before admin. pyrogen (before dosing)

Row | Compound | Amount of PGE in c.s.f. (cats; [2]) | Rectal temperature (cats; [3]) [°C] | Amount of PGE in c.s.f. (cats; [4]) | Rectal temperature (cats; [4]) [°C] | Amount of PGE in c.s.f. (cats; [5]) | Rectal temperature (cats; [5]) [°C] | Percentage increment of volume of foot (male Sprague-Dowley rats) [%] | Weight of cancer (Ehrlich cancer) [g] | Content of PGE in the cancer (Ehrlich cancer) [ng/g] | rate of decrease of PGE (FIG. 13) [1] | rate of increase of PGF2-α (FIG. 12) [1] | Amount of dye-staff (Sato's lung cancer) [μg/g tumour]
1 | O=C(O)c1ccc(NC2O[C@H](CO)[C@@H](O)[C@H](O)[C@@H]2O)cc1 (stereo partly drawn) [Specimen No. 4, Sodium p-aminobenzoate-N--D-mannoside] | 5 ng/ml of c.s.f. | 39.9 | 11 ng/ml of c.s.f. | 41.3 | 2.6 ng/ml of c.s.f. | 39.0 | 32.5 | 0.56 | 4.19 |  |  | 
2 | O=C(O)c1ccc(NC2OC[C@@H](O)[C@H](O)[C@H]2O)cc1 (stereo partly drawn) [Specimen No. 7, Sodium p-aminobenzoate-N--D-xyloside] | 6 ng/ml of c.s.f. | 39.5 | 16 ng/ml of c.s.f. | 41.1 | 2.4 ng/ml of c.s.f. | 38.8 | 28.2 | 0.75 | 3.98 | the rate of decrease of PGE was raised as the concentration of the present substance was increased | the rate of increase of PGF2-α was reduced as the concentration of the present substance was increased | 51.0
3 | C[C@@H]1OC(Nc2ccc(C(=O)O)cc2)[C@H](O)[C@H](O)[C@H]1O (stereo partly drawn) [Specimen No. 8, Sodium p-aminobenzoate-N--L-rhamnoside] | 8 ng/ml of c.s.f. | 40.0 | 13 ng/ml of c.s.f. | 41.5 |  | 39.1 | 29.7 | 0.72 | 4.03 |  |  | 
